In patent US5340818A, “Methods and compositions for inhibiting tumor cell growth” (priority 1993, dated 1994):
“And” between values parts separate entries of the source, which are not always exact repeats. Identical values can stand only once. Like-named read-outs stand apart in the source and are kept apart here.

Experiments:
C1498 leukemia = details: ip, 28 × 1 × 10 mg/kg/day; cited from earlier work
Sarcoma 180 = details: ip, 30 × 1 × 10 mg/kg/day; cited from earlier work
L5178Y cells = details: cultured L5178Y cells; cited from earlier work
tumors = details: literature, cited from earlier work
L5178Y leukemia = details: ip, 28 × 1 × 10 mg/kg/day; cited from earlier work
X5563 myeloma = details: ip, 30 × 1 × 8 mg/kg/day; cited from earlier work
B82 leukemia = details: ip, 37.5 × 1 × 7 mg/kg/day; cited from earlier work
[1] = tested on: Ridgeway osteogenic sarcoma; details: ip, 48 × 1 × 9 mg/kg/day; cited from earlier work
DNA = details: cited from earlier work
S91 melanoma = details: ip, 36 × 1 × 9 mg/kg/day; cited from earlier work
Shionogi carcinoma 115 = details: ip, 36 × 1 × 9 mg/kg/day; cited from earlier work
Adrenocarcinoma 755 = details: ip, 30 × 1 × 10 mg/kg/day; cited from earlier work
Mecca lymphosarcoma = details: ip, 30 × 1 × 10 mg/kg/day; cited from earlier work
AKR leukemia = details: ip, 28 × 1 × 10 mg/kg/day; cited from earlier work
Ehrlich ascites = details: ip, 30 × 1 × 10 mg/kg/day; cited from earlier work
P1534 leukemia = details: ip, 30 × 1 × 10 mg/kg/day; cited from earlier work
L1210 leukemia = L1210 leukemia survival time evaluation in BDF1 mice; details: for Day 6 AWC / MST / N/T (nine day survivors/total mice) / Survival Time, individual mice / % ILS (increase in lifespan): day 1, QDX4 ip; for % ILS (increase in lifespan): 25% or greater indicates activity
L1210/0 cells = test: Cross-resistance studies: growth inhibition of doxorubicin-sensitive L1210/0 cells; format: cell-based; details: L1210/0 (doxorubicin sensitive)
BREI = test: Survival time evaluation, BREI (ip) in BDF1 mice; format: in vivo, mouse; design: Survival Time, individual mice / AST: unit not given here; details: for AST / Day 7 AWC / N/T (15 day survivors/total mice) / Survival Time, individual mice / % ILS: day 1, QDX4; for % ILS: 25% or greater indicates activity
Method: 0.2 ML BREI (ip) ca. 10 6 cells IN BDF1 (FEMALE) 19-21 g
DILUENT - COCKTAIL DIL 1:10 dextrose
SCHEDULE - DAY 1, QDX4 bid (ip) DAY 1, QDX4 per os

L1210/Dx cells = test: Cross-resistance studies: growth inhibition of doxorubicin-resistant L1210/Dx cells; format: cell-based

What does the source list for `COc1cc2c(c3c1c(=O)c1ccccc1n3C)C=CC(C)(C)O2` [Compound 1, Acronycine]?
Percent activity (C1498 leukemia): 79(7) Percent; Percent activity (Sarcoma 180): 40(9) Percent; inhibition of incorporation of extracellular nucleosides into DNA and RNA, in words (L5178Y cells): inhibit the incorporation of extracellular nuclosides into the DNA and RNA; antitumor activity, in words (tumors): broad spectrum of antitumor activity; antitumor activity, in words (tumors; listed as acronycine): effective against a wide range of neoplasms; Percent activity (L5178Y leukemia): 62%; Percent activity (X5563 myeloma): 100(8) Percent; Percent activity (B82 leukemia): 61%; Percent activity [1]: 100(10) Percent; interaction with DNA, in words (DNA): did not interact with DNA; Percent activity (S91 melanoma): 100(4) Percent; Percent activity (Shionogi carcinoma 115): 100(7) Percent; Percent activity (Adrenocarcinoma 755): 40(10) Percent; Percent activity (Mecca lymphosarcoma): 63(7) Percent; Percent activity (AKR leukemia): 78(5) Percent; Percent activity (Ehrlich ascites): 0(1) Percent; Percent activity (P1534 leukemia): 0%

With `COc1c(OC)c(OC)c2c(c1O)c(=O)c1ccc(O)c(OC)c1n2C` [Compound 31, Glyfoline] as the compound, how does the “Day 6 AWC” value (L1210 leukemia; 6.25 mg/kg) read?
The value was “+1.8 g”.

What about the MST (L1210 leukemia; 6.25 mg/kg) of the same compound?
Its MST is 7.0.

And the “N/T (nine day survivors/total mice)” value (L1210 leukemia; 6.25 mg/kg)?
Its value is 0/2.

What about the “Survival Time, individual mice” value (L1210 leukemia; 6.25 mg/kg) of the same compound?
The value was 7.

And the “% ILS (increase in lifespan)” value (L1210 leukemia; 6.25 mg/kg)?
The value was 0%.

What about the “Day 6 AWC” value (L1210 leukemia; 12.5 mg/kg) of the same compound?
Its value is “+2.0 g”.

And the MST (L1210 leukemia; 12.5 mg/kg)?
Its MST is 8.0.

And the “N/T (nine day survivors/total mice)” value (L1210 leukemia; 12.5 mg/kg)?
The value was 0/2.

And the “Survival Time, individual mice” value (L1210 leukemia; 12.5 mg/kg)?
Its value is 8.

What about the “% ILS (increase in lifespan)” value (L1210 leukemia; 12.5 mg/kg) of the same compound?
The value was 14%.

What about the “antileukemic activity, in words” value (L1210 leukemia; L1210, BDF mice, low doses, ip) of the same compound?
Its value is “some activity”.

What about the IC50 (L1210/0 cells) of the same compound?
Its IC50 is 2090 nM.

And the AST (BREI; 100 mg/kg bid ip)?
Its AST is 14.2.

And the “Day 7 AWC” value (BREI; 100 mg/kg bid ip)?
The value was “+1.0 g”.

And the “N/T (15 day survivors/total mice)” value (BREI; 100 mg/kg bid ip)?
The value was 0/5.

What about the “Survival Time, individual mice” value (BREI; 100 mg/kg bid ip) of the same compound?
Its value is 13 and 14 and 17.

What about the “% ILS” value (BREI; 100 mg/kg bid ip) of the same compound?
Its value is 18%.

What about the AST (BREI; 500 mg/kg p.o.) of the same compound?
The AST was > 19.

What about the “Day 7 AWC” value (BREI; 500 mg/kg p.o.) of the same compound?
Its value is “+0.8 g”.

What about the “N/T (15 day survivors/total mice)” value (BREI; 500 mg/kg p.o.) of the same compound?
The value was 1/5.

And the “Survival Time, individual mice” value (BREI; 500 mg/kg p.o.)?
Its value is 13 and 14 and 15 and > 40.

What about the “% ILS” value (BREI; 500 mg/kg p.o.) of the same compound?
The value was > 62%.

And the “tumorfree survival (one mouse)” value (BREI; oral route)?
Its value is > 40 days.

What about the “(IC50) 0/(IC50) Dx” value (L1210/Dx cells; L1210/0 and L1210/Dx) of the same compound?
The value was 1.58.

What about the IC50 (L1210/Dx cells; Mus musculus, L1210/Dx (doxorubicin resistant)) of the same compound?
The IC50 was 3310 nM.
